# Tests used:
# Assay type in all cases: physicochemical
# [1] = Drying temperature conditions: transformation of the crystal form under vacuum drying; conditions: for Crystal form: vacuum 0.1˜1.0 Torr
# Experimental: Form A prepared by Example 3 was treated with various drying temperatures and drying times under the vacuum condition of 0.1˜1.0 Torr, and the resulting trans-formation of the crystal form is represented in Table 1.
# [2] = Stability test (HPLC content and decomposition products, 5° C. and accelerated condition over 6 months)
# Experimental: The novel Forms A and B of Examples 3 and 11 of the present invention, and 50 mg of the authentic adefovir dipivosil (purity: 99.5%) were precisely weighed into a 50 mL volumetric flask and dissolved in diluent. After making up to the mark, they were used as sample solution and standard solution, respectively. Analysis was carried out according to the following conditions, so that the contents of the novel Forms A and B, and the amounts of decomposition products of adefovir dipivoxil formed were calculated by the peak areas. The changes in the contents of novel crystal forms and the amounts of decomposition products were measured under 5° C. and accelerated condition over 6 months.
# Instrument: Waters HPLC model 2695
# Column: Allech Mixed Mode Anion exchange C8, 7 um 100 A pore size, 250 mm×4.6 mm
# Mobile phase mixing condition was operated as follows: For 19 min, mobile phase A was changed from 100% to 0%, and mobile phase B was changed from 0% to 100%. After elution with mobile phase B 100% till 36 min, the elution was changed from mobile phase A 0% to 100% till 46 min.
# Mobile phase A: buffer/acetonitrile (70:30, v/v)
# Mobile phase B: buffer/acetonitrile (50:50, v/v)
# Buffer: 9.2 g of K2HPO4 and 47.2 g of KH2PO4 were dissolved in 2 L of purified water
# Diluent: 3.4 g of KH2PO4 was dissolved in 1 L of purified water and adjusted to pH 3.0
# Detector wave length: 260 nm
# [3] = Dissolution test of formulations; conditions: for Dissolution rate (%): formulation per Example 1 of WO00/35460, average of 3
# Experimental: Using the novel Form B prepared in Example 11 of the present invention and the Form I prepared in Example 1 of WO99/04774 as raw materials, each formulation was manufactured by the technique disclosed in Example 1 of WO00/35460. Dissolution rates were compared in 0.01N HCl solution, pH 1.2 buffer solution (NaCl 20 g+37% HCl 68˜70 mL+distilled water 9 L), pH 4.0 buffer solution (sodium acetate 7.38 g+acetic acid 25 mL+distilled water 9 L), pH 6.0 buffer solution (KH2PO4 68 g+NaOH+distilled water 10 L) and pH 7 distilled water. Experiments were repeated 3 times for each case, and the average values are represented in Table 4.
# [4] = drying time 10 h, drying temperature 40° C.
# [5] = Accelerated (25° C., 60% RH), 0 month
# [6] = Accelerated (25° C., 60% RH), 1 month
# [7] = Accelerated (25° C., 60% RH), 3 months
# [8] = Accelerated (25° C., 60% RH), 6 months
smiles,measurement,setting,value
"CC(C)(C)C(=O)OCOP(=O)(COCCN1C=NC2C(N)=NC=NC21)OCOC(=O)C(C)(C)C (single isomer, unassigned) [Form A, 9-[2-[phosphonomethoxy]ethyl]adenine bis-pivaloyloxymethyl ester]",Transformation of the crystal form,[1]; dried at 35 to 45° C.,transformed from Form A to Form B
same,Crystal form,"[1]; drying time 10 h, drying temperature 25° C.",Form A (2 hydrate)
same,Crystal form,"[1]; drying time 10 h, drying temperature 35° C.",Form B
same,Crystal form,[1]; [4],Form B
same,Crystal form,"[1]; drying time 10 h, drying temperature 42° C.",Form B
same,Crystal form,"[1]; drying time 10 h, drying temperature 45° C.",Form B
same,Crystal form,"[1]; drying time 10 h, drying temperature 50° C.",Mixture of Form B +
same,Crystal form,"[1]; drying time 48 h, drying temperature 25° C.",Form A (2 hydrate)
same,Transformation of the crystal form,[1]; vacuum dried at 25° C.,not transformed to other crystal forms
same,Content,"[2]; 5° C., 0 month",100.26%
same,Total amount of decomposition product,"[2]; 5° C., 0 month",0.27%
same,Content,"[2]; 5° C., 1 month",99.45%
same,Total amount of decomposition product,"[2]; 5° C., 1 month",0.25%
same,Content,"[2]; 5° C., 3 months",100.43%
same,Total amount of decomposition product,"[2]; 5° C., 3 months",0.25%
same,Content,"[2]; 5° C., 6 months",100.2%
same,Total amount of decomposition product,"[2]; 5° C., 6 months",0.32%
same,Content,[2]; [5],100.26%
same,Total amount of decomposition product,[2]; [5],0.27%
same,Content,[2]; [6],99.68%
same,Total amount of decomposition product,[2]; [6],0.38%
same,Content,[2]; [7],99.50%
same,Total amount of decomposition product,[2]; [7],0.43%
same,Content,[2]; [8],100.06%
same,Total amount of decomposition product,[2]; [8],0.60%
"CC(C)(C)C(=O)OCOP(=O)(COCCN1C=NC2C(N)=NC=NC21)OCOC(=O)C(C)(C)C (single isomer, unassigned) [Form B, 9-[2-[phosphonomethoxy]ethyl]adenine bis-pivaloyloxymethyl ester]",Content,"[2]; 5° C., 0 month",100.48%
same,Total amount of decomposition product,"[2]; 5° C., 0 month",0.38%
same,Content,"[2]; 5° C., 1 month",100.34%
same,Total amount of decomposition product,"[2]; 5° C., 1 month",0.31%
same,Content,"[2]; 5° C., 3 months",99.18%
same,Total amount of decomposition product,"[2]; 5° C., 3 months",0.36%
same,Content,"[2]; 5° C., 6 months",99.74%
same,Total amount of decomposition product,"[2]; 5° C., 6 months",0.43%
same,Content,[2]; [5],100.48%
same,Total amount of decomposition product,[2]; [5],0.38%
same,Content,[2]; [6],98.85%
same,Total amount of decomposition product,[2]; [6],0.42%
same,Content,[2]; [7],100.25%
same,Total amount of decomposition product,[2]; [7],0.50%
same,Content,[2]; [8],99.32%
same,Total amount of decomposition product,[2]; [8],0.66%
same,Dissolution rate (%),"[3]; 0.01N HCl, 5 min",85.25%
same,Dissolution rate (%),"[3]; 0.01N HCl, 10 min",97.19%
same,Dissolution rate (%),"[3]; 0.01N HCl, 15 min",99.65%
same,Dissolution rate (%),"[3]; 0.01N HCl, 30 min",101.12%
same,Dissolution rate (%),"[3]; distilled water (pH 7), 5 min",83.57%
same,Dissolution rate (%),"[3]; distilled water (pH 7), 10 min",96.96%
same,Dissolution rate (%),"[3]; distilled water (pH 7), 15 min",98.73%
same,Dissolution rate (%),"[3]; distilled water (pH 7), 30 min",98.96%
same,Dissolution rate (%),"[3]; pH 1.2 buffer, 5 min",93.77%
same,Dissolution rate (%),"[3]; pH 1.2 buffer, 10 min",101.06%
same,Dissolution rate (%),"[3]; pH 1.2 buffer, 15 min",102.03%
same,Dissolution rate (%),"[3]; pH 1.2 buffer, 30 min",101.71%
same,Dissolution rate (%),"[3]; pH 4.0 buffer, 5 min",87.18%
same,Dissolution rate (%),"[3]; pH 4.0 buffer, 10 min",96.99%
same,Dissolution rate (%),"[3]; pH 4.0 buffer, 15 min",98.21%
same,Dissolution rate (%),"[3]; pH 4.0 buffer, 30 min",98.98%
same,Dissolution rate (%),"[3]; pH 6.0 buffer, 5 min",88.62%
same,Dissolution rate (%),"[3]; pH 6.0 buffer, 10 min",95.33%
same,Dissolution rate (%),"[3]; pH 6.0 buffer, 15 min",98.01%
same,Dissolution rate (%),"[3]; pH 6.0 buffer, 30 min",100.32%
same,Dissolution rate compared with the formulation utilizing the existing Form I,"[3]; formulations, summary of Table 4",superior
"CC(C)(C)C(=O)OCOP(=O)(COCCN1C=NC2C(N)=NC=NC21)OCOC(=O)C(C)(C)C (single isomer, unassigned) [Form I, 9-[2-[phosphonomethoxy]ethyl]adenine bis-pivaloyloxymethyl ester, reference compound]",Transformation of the crystal form,[1]; dried at 35 to 45° C.,not transformed to Form B
same,Crystal form,[1]; [4],Form I
same,Crystal form,"[1]; drying time 20 h, drying temperature 40° C.",Form I
same,Dissolution rate (%),"[3]; 0.01N HCl, 5 min",88.11%
same,Dissolution rate (%),"[3]; 0.01N HCl, 10 min",93.32%
same,Dissolution rate (%),"[3]; 0.01N HCl, 15 min",95.48%
same,Dissolution rate (%),"[3]; 0.01N HCl, 30 min",98.17%
same,Dissolution rate (%),"[3]; distilled water (pH 7), 5 min",70.92%
same,Dissolution rate (%),"[3]; distilled water (pH 7), 10 min",83.19%
same,Dissolution rate (%),"[3]; distilled water (pH 7), 15 min",88.58%
same,Dissolution rate (%),"[3]; distilled water (pH 7), 30 min",94.85%
same,Dissolution rate (%),"[3]; pH 1.2 buffer, 5 min",95.24%
same,Dissolution rate (%),"[3]; pH 1.2 buffer, 10 min",100.90%
same,Dissolution rate (%),"[3]; pH 1.2 buffer, 15 min",101.38%
same,Dissolution rate (%),"[3]; pH 1.2 buffer, 30 min",101.61%
same,Dissolution rate (%),"[3]; pH 4.0 buffer, 5 min",83.38%
same,Dissolution rate (%),"[3]; pH 4.0 buffer, 10 min",88.07%
same,Dissolution rate (%),"[3]; pH 4.0 buffer, 15 min",89.76%
same,Dissolution rate (%),"[3]; pH 4.0 buffer, 30 min",93.00%
same,Dissolution rate (%),"[3]; pH 6.0 buffer, 5 min",74.89%
same,Dissolution rate (%),"[3]; pH 6.0 buffer, 10 min",89.88%
same,Dissolution rate (%),"[3]; pH 6.0 buffer, 15 min",94.58%
same,Dissolution rate (%),"[3]; pH 6.0 buffer, 30 min",97.38%
